According to US12649727B2, “EFGR inhibitor, preparation method therefor and application thereof” (Abbisko Therapeutics Co., Ltd, priority 2020, dated 2026):

How the values were obtained:
Assay type in all cases: cell-based
A431 (EGFR-WT) = assay: Proliferation experiment, A431 cell line (CellTiter-Glo); conditions: Homo sapiens, A-431; A431 cells, cultured for 72 hrs with compound, CTG analysis
Procedure: [The procedure below names another cell line; the source lists this cell line under the same test.] (§1) Proliferation Experiment of Ba/F3 Cell Line
(§2) (I) Reagents and Materials
(§3) • Fetal bovine serum FBS (GBICO, Cat #10099-141); • CellTiter-Glo® luminescent cell viability assay kit (Promega, Cat #G7572); • Black transparent flat-bottom 96 well plate (Corning®, Cat #3603). (II) Instruments • SpectraMax multi-label microplate reader MD, 2104-0010A; • Carbon dioxide incubator, Thermo Scientific 3100 series; • Biological safety cabinet, Thermo Scientific, 1300 series model A2; • Inverted microscope, Olympus, CKX41SF; • Siemens refrigerator KK25E76TI. (III) Cell Lines and Culture Conditions
(§4) (IV) Experimental Procedures 1. Cell Culture and Inoculation: • (1) Cells in the logarithmic growth phase were harvested and counted using a […]. Cell viability was detected by Trypan Blue Dye Exclusion Method to ensure cell viability above 90%. • (2) The cell concentration was adjusted to reach a desired final density; 90 μL of cell suspension was added to the 96-well plate. • (3) The cells were incubated overnight in the 96-well plate at 37° C., 5% CO2 and at 95% humidity.
(§5) 2. T0 Reference Data: • (1) 10 μL PBS was added to each well of the TO plate containing the cells. • (2) The CTG reagent was thawed and the cell plate was equilibrated to room temperature for 30 min. • (3) An equal volume of CTG solution was added to each well. • (4) The cells were lysed by shaking on an orbital shaker for 5 min. • (5) The cell plate was left at room temperature for 20 min to stabilize the luminescence signal. • (6) The fluorescence signal values of TO were read. 3. Dilution and Addition of Compounds • (1) According to the compound information table, a corresponding volume of DMSO was added to the corresponding compound powder to prepare a 10 mM stock solution. • (2) A 1000-fold, 3.16-fold-diluted compound solution was prepared. • (3) The 1000× diluted compound solution was diluted 100-fold with PBS to prepare a 10-fold compound solution with a maximum concentration of […], including 9 concentrations, with 3.16-fold dilution, and 10 μL of the medicament solution was added to each well of the 96-well plate to seed the cells. Triplicate wells were set for each compound concentration, with a final concentration of DMSO being 0.1%. • (4) The cells were placed in the 96-well plate filled with the medicament at 37° C., 5% CO2 and at 95% humidity, and cultured for 72 hrs before CTG analysis. 4. Fluorescence Signal Reading • (1) The CTG reagent was thawed and the cell plate was equilibrated to room temperature for 30 min. • (2) An equal volume of CTG solution was added to each well. • (3) The cells were lysed by shaking on an orbital shaker for 5 min. • (4) The cell plate was left at room temperature for 20 min to stabilize the fluorescence signal. • (5) The fluorescence values were read. 5. Data Processing
(§6) Data were analyzed using GraphPad Prism 7.0 software and fitted data were regressed using non-linear S-curves to obtain dose-response curves from which IC50 values (in nM) were calculated.

[1] = biological target: Ba/F3 EGFR-D770-N771ins_SVD (Homo sapiens, UniProt P00533, DUP768-770, cells depend on it); assay: Proliferation experiment of Ba/F3 cell line, EGFR-D770-N771ins_SVD (CellTiter-Glo); conditions: cultured for 72 hrs with compound, CTG analysis, read-out: Ba/F3 EGFR-D770-N771ins_SVD IC50
Procedure: as §1, §2, §3, §4, §5, §6

[2] = biological target: Ba/F3 EGFR-V769_D770insASV (Homo sapiens, UniProt P00533, DUP767-769, cells depend on it); assay: Proliferation experiment of Ba/F3 cell line, EGFR-V769_D770insASV (CellTiter-Glo); conditions: cultured for 72 hrs with compound, CTG analysis, read-out: Ba/F3 EGFR-V769_D770insASV IC50
Procedure: as §1, §2, §3, §4, §5, §6

Ba/F3 EGFR-D770-N771ins_SVD, sequence (P00533 with tags, fused parts or gaps DUP768-770): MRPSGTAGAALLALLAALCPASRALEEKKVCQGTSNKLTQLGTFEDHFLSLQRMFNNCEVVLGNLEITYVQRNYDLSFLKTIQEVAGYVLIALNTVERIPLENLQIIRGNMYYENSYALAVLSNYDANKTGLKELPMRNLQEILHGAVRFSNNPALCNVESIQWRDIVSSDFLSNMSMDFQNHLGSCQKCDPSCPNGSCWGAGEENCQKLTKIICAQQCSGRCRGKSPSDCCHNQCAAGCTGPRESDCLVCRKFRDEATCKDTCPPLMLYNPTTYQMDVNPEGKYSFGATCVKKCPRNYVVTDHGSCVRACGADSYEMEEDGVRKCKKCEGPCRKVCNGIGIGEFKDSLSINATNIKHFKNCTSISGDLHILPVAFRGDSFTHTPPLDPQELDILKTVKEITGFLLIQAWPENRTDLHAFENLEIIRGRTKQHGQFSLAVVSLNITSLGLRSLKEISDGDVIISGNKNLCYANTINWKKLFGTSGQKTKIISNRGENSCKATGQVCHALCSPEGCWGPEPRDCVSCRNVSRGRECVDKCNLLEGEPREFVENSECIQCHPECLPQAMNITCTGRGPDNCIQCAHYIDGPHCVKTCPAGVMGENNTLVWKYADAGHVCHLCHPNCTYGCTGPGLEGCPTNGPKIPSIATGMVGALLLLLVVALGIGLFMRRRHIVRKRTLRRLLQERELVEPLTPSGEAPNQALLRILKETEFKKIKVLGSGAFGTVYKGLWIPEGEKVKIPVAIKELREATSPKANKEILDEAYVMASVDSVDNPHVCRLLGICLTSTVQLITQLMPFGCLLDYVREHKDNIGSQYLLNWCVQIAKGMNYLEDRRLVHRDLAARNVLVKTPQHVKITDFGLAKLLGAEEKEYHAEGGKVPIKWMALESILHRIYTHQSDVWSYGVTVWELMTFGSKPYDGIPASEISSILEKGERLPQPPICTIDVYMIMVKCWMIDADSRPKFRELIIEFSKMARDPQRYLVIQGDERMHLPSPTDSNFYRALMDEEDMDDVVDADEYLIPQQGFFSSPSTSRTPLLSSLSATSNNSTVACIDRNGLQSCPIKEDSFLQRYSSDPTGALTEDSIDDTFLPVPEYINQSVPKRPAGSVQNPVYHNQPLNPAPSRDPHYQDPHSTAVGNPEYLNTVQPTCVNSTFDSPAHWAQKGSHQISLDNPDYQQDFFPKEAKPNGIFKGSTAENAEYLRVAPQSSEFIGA
Ba/F3 EGFR-V769_D770insASV, sequence (P00533 with tags, fused parts or gaps DUP767-769): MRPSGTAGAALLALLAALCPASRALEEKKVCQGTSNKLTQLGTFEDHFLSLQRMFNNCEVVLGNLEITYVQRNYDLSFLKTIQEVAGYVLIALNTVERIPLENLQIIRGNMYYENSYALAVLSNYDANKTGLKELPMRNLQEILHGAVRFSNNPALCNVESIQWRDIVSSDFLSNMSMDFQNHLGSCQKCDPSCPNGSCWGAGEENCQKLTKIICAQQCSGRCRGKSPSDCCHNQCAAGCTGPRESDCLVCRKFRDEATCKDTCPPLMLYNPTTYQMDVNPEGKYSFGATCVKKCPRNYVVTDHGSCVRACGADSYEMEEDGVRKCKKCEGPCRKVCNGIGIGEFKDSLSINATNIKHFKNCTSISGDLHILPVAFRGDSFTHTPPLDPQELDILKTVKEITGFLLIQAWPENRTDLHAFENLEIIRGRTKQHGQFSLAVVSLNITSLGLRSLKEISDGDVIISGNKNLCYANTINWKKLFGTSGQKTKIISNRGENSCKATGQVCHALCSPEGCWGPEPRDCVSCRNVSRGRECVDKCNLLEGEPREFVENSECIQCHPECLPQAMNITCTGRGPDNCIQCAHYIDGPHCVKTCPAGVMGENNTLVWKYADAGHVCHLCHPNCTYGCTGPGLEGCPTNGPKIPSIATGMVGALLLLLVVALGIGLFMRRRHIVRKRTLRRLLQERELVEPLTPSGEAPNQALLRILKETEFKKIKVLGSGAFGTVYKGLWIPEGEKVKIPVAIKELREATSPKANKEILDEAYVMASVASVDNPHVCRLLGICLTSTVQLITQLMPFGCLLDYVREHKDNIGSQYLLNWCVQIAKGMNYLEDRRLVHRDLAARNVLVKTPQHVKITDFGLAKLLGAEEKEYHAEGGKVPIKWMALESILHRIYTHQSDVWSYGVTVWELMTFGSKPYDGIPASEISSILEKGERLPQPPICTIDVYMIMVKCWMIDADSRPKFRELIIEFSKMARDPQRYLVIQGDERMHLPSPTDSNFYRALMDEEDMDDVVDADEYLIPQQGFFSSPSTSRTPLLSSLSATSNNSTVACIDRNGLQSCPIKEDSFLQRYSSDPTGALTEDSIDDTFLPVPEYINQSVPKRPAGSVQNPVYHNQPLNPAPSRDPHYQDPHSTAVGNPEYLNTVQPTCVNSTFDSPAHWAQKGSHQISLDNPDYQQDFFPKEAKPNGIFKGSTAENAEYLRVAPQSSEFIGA

IC50 (A431 (EGFR-WT)) | GI50 [1] | GI50 [2] | SMILES
136 nM | 3.5 nM | 4.4 nM | C=CC(=O)Nc1cc2c(Nc3ccnc(-c4c(F)cccc4F)c3)ncnc2cc1OCCCN1CCN(C)CC1 [Example 74, N-(4-((2-(2,6-difluorophenyl)pyridin-4-yl)amino)-7-(3-(4-methylpiperazin-1-yl)propoxy)quinazolin-6-yl)acrylamide]
38.1 nM | 3.4 nM | 5 nM | C=CC(=O)Nc1cc2c(Nc3ccnc(-c4ccccc4F)c3)ncnc2cc1OCCCN1CCOCC1 [Example 69, N-(4-((2-(2-fluorophenyl)pyridin-4-yl)amino)-7-(3-morpholinopropoxy)quinazolin-6-yl)acrylamide]
302 nM | 31.6 nM | 47.5 nM | C=CC(=O)Nc1cc2c(Nc3cccc(-c4c(F)cccc4F)c3)ncnc2cc1O[C@@H]1CCN(C)C1 [Example 37, (R)-N-(4-((2′,6′-difluoro-[1,1′-biphenyl]-3-yl)amino)-7-((1-methylpyrrolidin-3-yl)oxy)quinazolin-6-yl)acrylamide]
289 nM | 4.1 nM | 7.9 nM | C=CC(=O)Nc1cc2c(Nc3ccnc(-c4ccccc4F)c3)ncnc2cc1O[C@@H]1CCN(C)C1 [Example 65, (R)—N-(4-((2-(2-fluorophenyl)pyridin-4-yl)amino)-7-((1-methylpyrrolidin-3-yl)oxy)quinazolin-6-yl)acrylamide]
33.4 nM | 52.1 nM | 97.4 nM | C=CC(=O)Nc1cc2c(Nc3cccc(-c4c(F)cccc4F)c3)ncnc2cc1OCCN1CCOCC1 [Example 26, N-(4-((2′,6′-difluoro-[1,1′-biphenyl]-3-yl)amino)-7-(2-morpholinoethoxy)quinazolin-6-yl)acrylamide]
820 nM | 3.3 nM | 7.5 nM | C=CC(=O)Nc1cc2c(Nc3ccnc(-c4ccccc4F)c3)ncnc2cc1OCC [Example 83, N-(4-((2-(2-fluorophenyl)pyridin-4-yl)amino)-7-ethoxyquinazolin-6-yl)acrylamide]
83 nM | 13.9 nM | 29.3 nM | C=CC(=O)Nc1cc2c(Nc3cccc(-c4ncccc4F)c3)ncnc2cc1OCCCN1CCN(C)CC1 [Example 44, N-(4-((3-(3-fluoropyridin-2-yl)phenyl)amino)-7-(3-(4-methylpiperazin-1-yl)propoxy)quinazolin-6-yl)acrylamide]
260 nM | 21.5 nM | 33.1 nM | C=CC(=O)Nc1cc2c(Nc3cccc(-c4c(F)cccc4F)c3)ncnc2cc1OCCCN1CC[C@@H](N(C)C)C1 [Example 34, (R)-N-(4-((2′,6′-difluoro-[1,1′-biphenyl]-3-yl)amino)-7-(3-(3-(dimethylamino)pyrrolidin-1-yl)propoxy)quinazolin-6-yl)acrylamide]
235 nM | 32.3 nM | 68.6 nM | C=CC(=O)Nc1cc2c(Nc3cccc(-c4c(F)cccc4F)c3)ncnc2cc1OCCCN1CC(N(C)C)C1 [Example 36, N-(4-((2′,6′-difluoro-[1,1′-biphenyl]-3-yl)amino)-7-(3-(3-(dimethylamino)azetidin-1-yl)propoxy)quinazolin-6-yl)acrylamide]
487 nM | 4.1 nM | 10.7 nM | C=C(F)C(=O)Nc1cc2c(Nc3ccnc(-c4ccccc4F)c3)ncnc2cc1OCC [Example 87, 2-fluoro-N-(4-((2-(2-fluorophenyl)pyridin-4-yl)amino)-7-ethoxyquinazolin-6-yl)acrylamide]
21.1 nM | 9.5 nM | 11.5 nM | CN(C)C/C=C/C(=O)Nc1cc2c(Nc3ccnc(-c4ccccc4F)c3)ncnc2cc1O[C@@H]1CCN(C)C1 [Example 67, (R,E)-4-(dimethylamino)-N-(4-((2-(2-fluorophenyl)pyridin-4-yl)amino)-7-((1-methylpyrrolidin-3-yl)oxy)quinazolin-6-yl)but-2-enamide]
365 nM | 34.4 nM | 221 nM | C=CC(=O)Nc1cc2c(Nc3cccc(-c4ccc(F)cc4F)c3)ncnc2cc1OCCCN1CCC(F)(F)CC1 [Example 14, N-(4-((2′,4′-difluoro-[1,1′-biphenyl]-3-yl)amino)-7-(3-(4,4-difluoropiperidin-1-yl)propoxy)quinazolin-6-yl)acrylamide]
66 nM | 17 nM | 27 nM | C=CC(=O)Nc1cc2c(Nc3cccc(-c4ccccc4F)c3)ncnc2cc1OCCCN1CCOCC1 [Example 45, N-(4-((2′-fluoro-[1,1′-biphenyl]-3-yl)amino)-7-(3-morpholinopropoxy)quinazolin-6-yl)acrylamide]
431 nM | 23.6 nM | 31.5 nM | C=CC(=O)Nc1cc2c(Nc3ccc(F)c(-c4ccccc4F)c3)ncnc2cc1OCCCN1CCOCC1 [Example 38, N-(4-((2′,6-difluoro-[1,1′-biphenyl]-3-yl)amino)-7-(3-morpholinopropoxy)quinazolin-6-yl)acrylamide]
225 nM | 4.4 nM | 14.8 nM | C=C(F)C(=O)Nc1cc2c(Nc3ccnc(-c4ccccc4F)c3)ncnc2cc1N1CCC(O)CC1 [Example 100, 2-fluoro-N-(4-((2-(2-fluorophenyl)pyridin-4-yl)amino)-7-(4-hydroxypiperidin-1-yl)quinazolin-6-yl)acrylamide]
316 nM | 3.3 nM | 5.1 nM | C=C(F)C(=O)Nc1cc2c(Nc3ccnc(-c4ccccc4F)c3)ncnc2cc1OC [Example 86, 2-fluoro-N-(4-((2-(2-fluorophenyl)pyridin-4-yl)amino)-7-methoxyquinazolin-6-yl)acrylamide]
270 nM | 13.7 nM | 30.6 nM | C=CC(=O)Nc1cc2c(Nc3cccc(-c4c(F)cccc4F)c3)ncnc2cc1OCCCN1CCN(C(C)C)CC1 [Example 22, N-(4-((2′,6′-difluoro-[1,1′-biphenyl]-3-yl)amino)-7-(3-(4-isopropylpiperazin-1-yl)propoxy)quinazolin-6-yl)acrylamide]
597 nM | 70.5 nM | 177 nM | C=CC(=O)Nc1cc2c(Nc3cccc(-c4ccc(F)cc4F)c3)ncnc2cc1OCCN1CCC(F)(F)C1 [Example 19, N-(4-((2′,4′-difluoro-[1,1′-biphenyl]-3-yl)amino)-7-(2-(3,3-difluoropyrrolidin-1-yl)ethoxy)quinazolin-6-yl)acrylamide]
458 nM | 38.3 nM | 68.3 nM | C=CC(=O)Nc1cc2c(Nc3cccc(-c4c(F)cccc4F)c3)ncnc2cc1OCCCN1CCN(C)CC1=O [Example 33, N-(4-((2′,6′-difluoro-[1,1′-biphenyl]-3-yl)amino)-7-(3-(4-methyl-2-oxopiperazin-1-yl)propoxy)quinazolin-6-yl)acrylamide]
190 nM | 29.5 nM | 41.4 nM | C=CC(=O)Nc1cc2c(Nc3ccc(F)c(-c4ccccc4)c3)ncnc2cc1OCCCN1CCOCC1 [Example 47, N-(4-((6-fluoro-[1,1′-biphenyl]-3-yl)amino)-7-(3-morpholinopropoxy)quinazolin-6-yl)acrylamide]
86.5 nM | 2.4 nM | 7.8 nM | C=CC(=O)Nc1cc2c(Nc3ccnc(-c4ccccc4F)c3)ncnc2cc1O[C@@H]1CCN(C(C)C)C1 [Example 125, (R)-N-(4-((2-(2-fluorophenyl)pyridin-4-yl)amino)-7-((1-isopropylpyrrolidin-3-yl)oxy)quinazolin-6-yl)acrylamide]

SMILES | IC50 (A431 (EGFR-WT)) | GI50 [1] | GI50 [2]
C=CC(=O)Nc1cc2c(Nc3ccnc(-c4ccccc4F)c3)ncnc2cc1O[C@@H]1CCN(CCO)C1 [Example 112, (R)—N-(4-((2-(2-fluorophenyl)pyridin-4-yl)amino)-7-((1-(2-hydroxyethyl)pyrrolidin-3-yl)oxy)quinazolin-6-yl)acrylamide] | 89.3 nM | 1.4 nM | 3.6 nM
